In ChEMBL document CHEMBL1151840, “Synthetic oligoribonucleotides containing arabinonucleotides act as agonists of TLR7 and 8” (Bioorg Med Chem Lett, 2009):
The source made the active and inactive calls.

Legend:
Homo sapiens [1] = species: Homo sapiens; assay: Stimulation of immune response in human pDC assessed as induction of IL12 production at 150 ug/ml after 24 hrs; format: functional
PBMC [2] = assay: Stimulation of immune response in human PBMC assessed as induction of IL1-beta production at 150 ug/ml after 24 hrs; format: functional, cell-based
Homo sapiens [3] = species: Homo sapiens; assay: Stimulation of immune response in human pDC assessed as induction of MIP1beta production at 150 ug/ml after 24 hrs; format: functional
Homo sapiens [4] = species: Homo sapiens; assay: Stimulation of immune response in human pDC assessed as induction of IFNalpha production at 150 ug/ml after 24 hrs; format: functional
PBMC [5] = assay: Stimulation of immune response in human PBMC assessed as induction of RANTES production at 150 ug/ml after 24 hrs; format: functional, cell-based
PBMC [6] = assay: Stimulation of immune response in human PBMC assessed as induction of IL2R level at 150 ug/ml after 24 hrs; format: functional, cell-based
[7] = target: T1, Toll-like receptor 7 (Homo sapiens) (UniProt Q9NYK1); assay: Agonist activity at human TLR7 expressed in HEK293XL cells assessed as NF-kappaB activation after 18 hrs; format: functional, cell-based
T1 sequence (whole entry): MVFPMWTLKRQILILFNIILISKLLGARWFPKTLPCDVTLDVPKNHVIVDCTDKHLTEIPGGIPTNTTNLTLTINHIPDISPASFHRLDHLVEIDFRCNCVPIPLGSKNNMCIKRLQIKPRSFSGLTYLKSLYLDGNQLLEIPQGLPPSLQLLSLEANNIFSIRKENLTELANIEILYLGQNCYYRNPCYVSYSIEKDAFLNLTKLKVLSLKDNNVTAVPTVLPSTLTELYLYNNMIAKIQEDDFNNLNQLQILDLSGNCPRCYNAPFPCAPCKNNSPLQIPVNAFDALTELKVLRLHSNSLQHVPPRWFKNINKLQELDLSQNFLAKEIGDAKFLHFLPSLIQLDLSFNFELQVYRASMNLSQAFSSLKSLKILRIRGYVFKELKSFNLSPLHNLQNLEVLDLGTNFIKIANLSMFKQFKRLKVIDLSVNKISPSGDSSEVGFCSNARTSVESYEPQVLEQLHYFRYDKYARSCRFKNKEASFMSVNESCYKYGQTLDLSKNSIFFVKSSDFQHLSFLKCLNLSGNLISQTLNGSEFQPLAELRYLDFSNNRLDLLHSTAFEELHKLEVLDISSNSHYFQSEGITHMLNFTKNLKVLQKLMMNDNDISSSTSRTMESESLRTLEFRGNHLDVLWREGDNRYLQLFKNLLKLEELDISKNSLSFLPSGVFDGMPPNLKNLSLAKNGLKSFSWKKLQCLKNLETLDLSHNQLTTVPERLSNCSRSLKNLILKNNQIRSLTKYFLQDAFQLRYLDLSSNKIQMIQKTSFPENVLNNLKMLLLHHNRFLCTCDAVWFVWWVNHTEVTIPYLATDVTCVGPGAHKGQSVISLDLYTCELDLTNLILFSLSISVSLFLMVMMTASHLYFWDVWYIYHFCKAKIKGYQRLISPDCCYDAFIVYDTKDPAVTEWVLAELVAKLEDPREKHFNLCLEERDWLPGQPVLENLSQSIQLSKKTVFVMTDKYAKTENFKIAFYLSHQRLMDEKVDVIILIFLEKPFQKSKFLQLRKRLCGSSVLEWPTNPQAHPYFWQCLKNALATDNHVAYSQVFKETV

Homo sapiens [8] = species: Homo sapiens; assay: Stimulation of immune response in human pDC assessed as induction of TNFalpha production at 150 ug/ml after 24 hrs; format: functional
PBMC [9] = assay: Stimulation of immune response in human PBMC assessed as induction of MCP1 production at 150 ug/ml after 24 hrs; format: functional, cell-based
Homo sapiens [10] = species: Homo sapiens; assay: Stimulation of immune response in human pDC assessed as induction of IFN-gamma production at 150 ug/ml after 24 hrs; format: functional
PBMC [11] = assay: Stimulation of immune response in human PBMC assessed as induction of IL12 production at 150 ug/ml after 24 hrs; format: functional, cell-based
PBMC [12] = assay: Stimulation of immune response in human PBMC assessed as induction of TNFalpha production at 150 ug/ml after 24 hrs; format: functional, cell-based
PBMC [13] = assay: Stimulation of immune response in human PBMC assessed as induction of IL10 production at 150 ug/ml after 24 hrs; format: functional, cell-based
Mus musculus [14] = assay: Stimulation of immune response in C57BL/6 mouse assessed as induction of serum IL12 production at 50 mg/kg, sc after 2 hrs by luminex multiplex assay; format: functional, organism-based; design: dose 50 mg/kg
PBMC [15] = assay: Stimulation of immune response in human PBMC assessed as induction of MIP1beta production at 150 ug/ml after 24 hrs; format: functional, cell-based
Mus musculus [16] = assay: Stimulation of immune response in C57BL/6 mouse assessed as induction of serum IL10 production at 50 mg/kg, sc after 2 hrs by luminex multiplex assay; format: functional, organism-based; design: dose 50 mg/kg
PBMC [17] = assay: Stimulation of immune response in human PBMC assessed as induction of IL8 production at 150 ug/ml after 24 hrs; format: functional, cell-based
Mus musculus [18] = assay: Stimulation of immune response in C57BL/6 mouse assessed as induction of serum chemokine KC production at 50 mg/kg, sc after 2 hrs by luminex multiplex assay; format: functional, organism-based; design: dose 50 mg/kg
[19] = (§1) Stability in human serum assessed as full-length compound remaining after 10 mins by anion-exchange HPLC; format: ADME, cell-free; conditions: read-out: Stability
PBMC [20] = assay: Stimulation of immune response in human PBMC assessed as induction of MIP1alpha production at 150 ug/ml after 24 hrs; format: functional, cell-based
[21] = target: T2, Toll-like receptor 8 (Homo sapiens) (UniProt Q9NR97); assay: Agonist activity at human TLR8 expressed in HEK293XL cells assessed as NF-kappaB activation after 18 hrs; format: functional, cell-based
T2 sequence (whole entry): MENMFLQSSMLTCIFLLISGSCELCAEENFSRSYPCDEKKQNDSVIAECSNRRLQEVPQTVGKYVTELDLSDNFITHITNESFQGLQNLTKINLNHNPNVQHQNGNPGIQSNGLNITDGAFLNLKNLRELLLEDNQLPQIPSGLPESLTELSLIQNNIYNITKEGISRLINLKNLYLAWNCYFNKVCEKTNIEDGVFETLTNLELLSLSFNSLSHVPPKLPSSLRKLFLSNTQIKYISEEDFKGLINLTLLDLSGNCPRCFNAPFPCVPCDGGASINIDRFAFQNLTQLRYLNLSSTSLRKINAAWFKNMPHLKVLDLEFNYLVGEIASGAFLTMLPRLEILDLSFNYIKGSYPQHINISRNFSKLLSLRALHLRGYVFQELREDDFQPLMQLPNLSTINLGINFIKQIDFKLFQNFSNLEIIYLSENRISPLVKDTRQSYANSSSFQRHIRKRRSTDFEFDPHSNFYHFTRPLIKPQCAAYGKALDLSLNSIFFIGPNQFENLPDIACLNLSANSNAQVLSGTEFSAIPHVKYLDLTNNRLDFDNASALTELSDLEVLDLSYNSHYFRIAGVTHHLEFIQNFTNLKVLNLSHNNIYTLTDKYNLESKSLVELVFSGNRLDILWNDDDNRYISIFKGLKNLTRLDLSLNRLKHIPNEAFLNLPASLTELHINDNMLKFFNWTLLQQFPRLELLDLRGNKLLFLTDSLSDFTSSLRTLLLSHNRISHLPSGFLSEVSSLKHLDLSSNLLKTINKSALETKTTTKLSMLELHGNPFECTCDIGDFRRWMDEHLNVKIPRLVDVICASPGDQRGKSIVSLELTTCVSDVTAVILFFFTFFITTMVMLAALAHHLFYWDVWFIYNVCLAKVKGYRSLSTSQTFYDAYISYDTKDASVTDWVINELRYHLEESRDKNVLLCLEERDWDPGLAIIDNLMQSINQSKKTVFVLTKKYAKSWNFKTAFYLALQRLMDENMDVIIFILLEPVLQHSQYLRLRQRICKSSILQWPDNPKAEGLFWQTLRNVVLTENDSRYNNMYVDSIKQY

PBMC [22] = assay: Stimulation of immune response in human PBMC assessed as induction of IFN-gamma production at 150 ug/ml after 24 hrs; format: functional, cell-based
Homo sapiens [23] = species: Homo sapiens; assay: Stimulation of immune response in human pDC assessed as induction of MIP1alpha production at 150 ug/ml after 24 hrs; format: functional
PBMC [24] = assay: Stimulation of immune response in human PBMC assessed as induction of IFNalpha production at 150 ug/ml after 24 hrs; format: functional, cell-based
Serum = assay: as §1; format: ADME, cell-free; conditions: 10 min

Nc1ccn([C@@H]2O[C@H](COP(=O)(S)O[C@H]3[C@@H](O)[C@H](n4ccc(=O)[nH]c4=O)O[C@@H]3COP(=O)(S)O[C@H]3[C@H](O)[C@H](n4cnc5c(=O)[nH]c(N)nc54)O[C@@H]3COP(=O)(S)O[C@H]3[C@H](O)[C@H](n4ccc(N)nc4=O)O[C@@H]3COP(=O)(S)O[C@H]3[C@@H](O)[C@H](n4ccc(=O)[nH]c4=O)O[C@@H]3COP(=O)(S)O[C@H]3[C@@H](O)[C@H](n4ccc(=O)[nH]c4=O)O[C@@H]3COP(=O)(S)O[C@H]3[C@@H](O)[C@H](n4cnc5c(=O)[nH]c(N)nc54)O[C@@H]3COP(=O)(S)O[C@H]3[C@@H](O)[C@H](n4ccc(=O)[nH]c4=O)O[C@@H]3COP(=O)(S)O[C@H]3[C@@H](O)[C@H](n4cnc5c(=O)[nH]c(N)nc54)O[C@@H]3COP(=O)(S)OCC(O)COP(=O)(S)O[C@H]3[C@@H](O)[C@H](n4cnc5c(=O)[nH]c(N)nc54)O[C@@H]3COP(=O)(S)O[C@H]3[C@@H](O)[C@H](n4ccc(=O)[nH]c4=O)O[C@@H]3COP(=O)(S)O[C@H]3[C@@H](O)[C@H](n4cnc5c(=O)[nH]c(N)nc54)O[C@@H]3COP(=O)(S)O[C@H]3[C@@H](O)[C@H](n4ccc(=O)[nH]c4=O)O[C@@H]3COP(=O)(S)O[C@H]3[C@@H](O)[C@H](n4ccc(=O)[nH]c4=O)O[C@@H]3COP(=O)(S)O[C@H]3[C@H](O)[C@H](n4ccc(N)nc4=O)O[C@@H]3COP(=O)(S)O[C@H]3[C@@H](O)[C@H](n4cnc5c(=O)[nH]c(N)nc54)O[C@@H]3COP(=O)(S)O[C@H]3[C@@H](O)[C@H](n4ccc(=O)[nH]c4=O)O[C@@H]3COP(=O)(S)O[C@H]3[C@H](O)[C@H](n4ccc(N)nc4=O)O[C@@H]3COP(=O)(S)O[C@H]3[C@@H](O)[C@H](n4cnc5c(=O)[nH]c(N)nc54)O[C@@H]3COP(=O)(S)O[C@H]3[C@@H](O)[C@H](n4ccc(=O)[nH]c4=O)O[C@@H]3CO)[C@@H](OP(=O)(S)OC[C@H]3O[C@@H](n4cnc5c(=O)[nH]c(N)nc54)[C@H](O)[C@@H]3OP(=O)(S)OC[C@H]3O[C@@H](n4ccc(=O)[nH]c4=O)[C@H](O)[C@@H]3OP(=O)(O)S)[C@@H]2O)c(=O)n1 (stereo not given in full)
active: Activity (Homo sapiens [1]) | Activity (PBMC [2]) | Activity (Homo sapiens [3]) | Activity (Homo sapiens [4]) | Activity (PBMC [5]) | Activity (PBMC [6]) | Activity [7] Dose-dependent effect | Activity (Homo sapiens [8]) | Activity (PBMC [9]) | Activity (Homo sapiens [10]) | Activity (PBMC [11]) | Activity (PBMC [12]) | Activity (PBMC [13]) | Activity (Mus musculus [14]) | Activity (PBMC [15]) | Activity (Mus musculus [16]) | Activity (PBMC [17]) | Activity (Mus musculus [18]) | Activity (PBMC [20]) | Activity [21] Dose-dependent effect | Activity (PBMC [22]) | Activity (Homo sapiens [23]) | Activity (PBMC [24])
76%: remaining at 10 min [19]

Nc1ccn([C@@H]2O[C@H](COP(=O)(S)O[C@H]3[C@@H](O)[C@H](n4cnc5c(N)ncnc54)O[C@@H]3COP(=O)(S)O[C@H]3[C@@H](O)[C@H](n4cnc5c(=O)[nH]c(N)nc54)O[C@@H]3COP(=O)(S)O[C@H]3[C@@H](O)[C@H](n4ccc(=O)[nH]c4=O)O[C@@H]3COP(=O)(S)O[C@H]3[C@@H](O)[C@H](n4cnc5c(=O)[nH]c(N)nc54)O[C@@H]3COP(=O)(S)O[C@H]3[C@@H](O)[C@H](n4ccc(=O)[nH]c4=O)O[C@@H]3COP(=O)(S)O[C@H]3[C@@H](O)[C@H](n4cnc5c(=O)[nH]c(N)nc54)O[C@@H]3COP(=O)(S)O[C@H]3[C@@H](O)[C@H](n4ccc(=O)[nH]c4=O)O[C@@H]3COP(=O)(S)O[C@H]3[C@@H](O)[C@H](n4ccc(=O)[nH]c4=O)O[C@@H]3COP(=O)(S)O[C@H]3[C@@H](O)[C@H](n4cnc5c(=O)[nH]c(N)nc54)O[C@@H]3COP(=O)(S)O[C@H]3[C@@H](O)[C@H](n4ccc(=O)[nH]c4=O)O[C@H]3CO)[C@@H](OP(=O)(S)OCC(O)COP(=O)(S)O[C@H]3[C@@H](O)[C@H](n4ccc(N)nc4=O)O[C@@H]3COP(=O)(S)O[C@H]3[C@@H](O)[C@H](n4cnc5c(N)ncnc54)O[C@@H]3COP(=O)(S)O[C@H]3[C@@H](O)[C@H](n4cnc5c(=O)[nH]c(N)nc54)O[C@@H]3COP(=O)(S)O[C@H]3[C@@H](O)[C@H](n4ccc(=O)[nH]c4=O)O[C@@H]3COP(=O)(S)O[C@H]3[C@@H](O)[C@H](n4cnc5c(=O)[nH]c(N)nc54)O[C@@H]3COP(=O)(S)O[C@H]3[C@@H](O)[C@H](n4ccc(=O)[nH]c4=O)O[C@@H]3COP(=O)(S)O[C@H]3[C@@H](O)[C@H](n4cnc5c(=O)[nH]c(N)nc54)O[C@@H]3COP(=O)(S)O[C@H]3[C@@H](O)[C@H](n4ccc(=O)[nH]c4=O)O[C@@H]3COP(=O)(S)O[C@H]3[C@@H](O)[C@H](n4ccc(=O)[nH]c4=O)O[C@@H]3COP(=O)(S)O[C@H]3[C@@H](O)[C@H](n4cnc5c(=O)[nH]c(N)nc54)O[C@@H]3COP(=O)(S)O[C@H]3[C@@H](O)[C@H](n4ccc(=O)[nH]c4=O)O[C@@H]3CO)[C@H]2O)c(=O)n1 (stereo in doubt; 5)
75%: Stability (Serum)
